US5171837A, “Peptide capable of binding interleukin 6 and an adsorbent comprising the peptide immobilized on a carrier” (Kuraray Co., Ltd., priority 1989, dated 1992)
Non-standard residues stand in square brackets, D forms with d. Residues, ends and D or L forms follow the SMILES beside them. No end group written: not given here. *: point of attachment. X1 = NCCCCCCCCCCCCCCCCCC(=O)*; 12Ado = NCCCCCCCCCCCC(=O)O

biological target: T1, IL-6 (Homo sapiens, UniProt P05231); assay: Activity for inhibition of binding of IL-6 to receptor by peptide (IL-6 receptor expression cells, FITC labeled anti-IL-6 antibody); settings: 5 μg of the peptide, 50 ng of IL-6, 10^5 IL-6 receptor expression cells, 4° C for one hour
T1 construct: purchased Genzyme Corp
T1 sequence (P05231 30-212): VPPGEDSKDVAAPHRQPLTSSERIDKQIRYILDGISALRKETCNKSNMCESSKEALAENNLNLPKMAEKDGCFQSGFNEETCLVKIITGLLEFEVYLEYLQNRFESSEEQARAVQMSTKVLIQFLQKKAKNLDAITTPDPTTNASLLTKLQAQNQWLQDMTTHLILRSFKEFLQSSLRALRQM
Method: A human lymphocyte fraction was obtained from human peripheral blood with Ficoll-Paque (manufactured by Pharmacia-LKB). The fraction was reacted with a cultured supernatant of Epstein-Barr Virus producing cell strain B958 to transform the human lymphocytes to obtain IL-6 receptor expression cells.
1 mg of anti-human IL-6 antibody [Rabbit Anti-human Interleukin-6, manufactured by Genzyme Corp.] was dissolved in a 0.05M carbonate buffer solution (pH: 9.5) and to the resulting solution was added 10 μg of FITC [Fluorescein isothiocyanate, manufactured by Sigma Corp.]. The mixture was stirred at 4° C. overnight. The resulting solution was passed through PD-10 column (manufactured by Pharmacia-LKB) to obtain FITC labeled anti-IL-6 antibody as a firstly eluted fraction.
10^5 IL-6 receptor expression cells were suspended in 0.5 % BSA (bovine serum albumin, manufactured by Sigma Corp.)-PBS (a phosphate buffer solution containing 0.15 M sodium chloride, pH 7.4) and to the resulting suspension were added 50 ng of IL-6 (Human recombinant interleukin-6, manufactured by Genzyme Corp.) and 5 μg of the peptide obtained in any one of Examples 1 to 96. The suspension was allowed to stand at 4° C for one hour. Then, after washing the cells centrifugally with 0.5% BSA-PBS three times (1200 rpm, 5 min.), 1 μg of FITC labeled anti-IL-6 antibody was added and the mixture was allowed to stand at 4° C. for 30 minutes. After washing with 0.5% BSA-PBS three times, the intensity of fluorescence of the cells was determined. The binding inhibition activity of the peptide of each Example was evaluated, by taking the value obtained without addition of the peptide as a control and taking the value- obtained without addition of IL-6 as a blank, according to the following formula: [formula]

Point of comparison: “DDDDDQALTTNKDDDNILFRDSAAAG-NH2 [Example 32]”, “Binding inhibition activity (%)” value 44%. Against it:
- CC(C)C[C@H](NC(=O)[C@H](Cc1c[nH]c2ccccc12)NC(=O)[C@H](CCCNC(=N)N)NC(=O)[C@@H]1CCCN1C(=O)[C@H](CC(N)=O)NC(=O)CCCCCCCCCCCN)C(=O)N[C@@H](CO)C(=O)N[C@H](C(=O)N[C@H](C(=O)N[C@@H](Cc1c[nH]c2ccccc12)C(=O)N[C@@H](CCC(N)=O)C(=O)N[C@@H](CC(=O)O)C(=O)N1CCC[C@H]1C(=O)N[C@@H](Cc1c[nH]cn1)C(=O)N[C@@H](CO)C(=O)N[C@@H](CCC(=O)O)C(=O)N[C@@H](CCC(=O)O)C(=O)N[C@@H](CCC(=O)O)C(=O)N[C@@H](CCC(=O)O)C(=O)N[C@@H](CCC(=O)O)C(=O)O)[C@@H](C)O)C(C)C [Example 51] (H-[12Ado]NPRWLSVTWQDPHSEEEEE-OH) — lower, 32%
- H-Thr-Ser-Leu-Pro-Gly-Ser-Val-Thr-Leu-Thr-Cys-Pro-Gly-Val-Glu-Pro-Glu-Asp- Lys-OH (H-TSLPGSVTLTCPGVEPEDK-OH) [Example 1] — lower, 38%
- HSWNSSFYRLRFELRYRAERSK [Example 61] — higher, 45%
- EEEHSWNSSFYRLRFELRYRAERSKKG-NH2 [Example 63] — higher, 51%
- DDDDDDPHSWNSSFYRLRFELRYRAERSKAAG-NH2 [Example 80] — higher, 59%
- CC(C)C[C@H](NC(=O)[C@H](Cc1c[nH]cn1)NC(=O)[C@@H](NC(=O)[C@@H](NC(=O)CNC(=O)CCCCCCCCCCCCCCCCCN)[C@@H](C)O)C(C)C)C(=O)N[C@@H](CC(C)C)C(=O)N[C@H](C(=O)N[C@@H](CC(=O)O)C(=O)N[C@H](C(=O)N1CCC[C@H]1C(=O)N1CCC[C@H]1C(=O)N[C@@H](CCC(=O)O)C(=O)N[C@@H](CCC(=O)O)C(=O)N1CCC[C@H]1C(=O)N[C@@H](CCC(N)=O)C(=O)N[C@@H](CC(C)C)C(=O)N[C@@H](CO)C(=O)N[C@@H](CS)C(=O)N[C@@H](Cc1ccccc1)C(=O)N[C@@H](CCCNC(=N)N)C(=O)N[C@@H](CCCCN)C(=O)NCC(=O)O)C(C)C)C(C)C [Example 12] (X1-GTVHLLVDVPPEEPQLSCFRKG-OH) — lower, 35%
- KKDPHSWNSSFYRLRFELRYRAERSK [Example 74] — higher, 70%
- KKGTVHLLVDVPPEEPQLSCFRK [Example 10] — lower, 28%
- DDDDDGTVHLLVDVPPEEPQLSCFRKAAG-NH2 [Example 16] — lower, 31%
- KHSWNSSFYRLRFELRYRAERSKD-NH2 [Example 62] — higher, 50%
- EEEDPHSWNSSFYRLRFELRYRAERSKKG-NH2 [Example 79] — higher, 62%
- KNPRWLSVTWQDPHSD-NH2 [Example 54] — lower, 28%
- CC(C)C[C@H](NC(=O)[C@H](CCC(=O)O)NC(=O)[C@H](Cc1ccccc1)NC(=O)[C@H](CCCNC(=N)N)NC(=O)[C@H](CC(C)C)NC(=O)[C@H](CCCNC(=N)N)NC(=O)[C@H](Cc1ccc(O)cc1)NC(=O)[C@H](Cc1ccccc1)NC(=O)[C@H](CO)NC(=O)[C@H](CO)NC(=O)[C@H](CC(N)=O)NC(=O)[C@H](Cc1c[nH]c2ccccc12)NC(=O)[C@H](CO)NC(=O)[C@H](Cc1c[nH]cn1)NC(=O)CCCCCCCCCCCCCCCCCN)C(=O)N[C@@H](CCCNC(=N)N)C(=O)N[C@@H](Cc1ccc(O)cc1)C(=O)N[C@@H](CCCNC(=N)N)C(=O)N[C@@H](C)C(=O)N[C@@H](CCC(=O)O)C(=O)N[C@@H](CCCNC(=N)N)C(=O)N[C@@H](CO)C(=O)N[C@@H](CCCCN)C(=O)NCC(=O)O [Example 60] (X1-HSWNSSFYRLRFELRYRAERSKG-OH) — higher, 58%
- WQDPHSWNSSFYRLRFELRYRAERSKK [Example 89] — higher, 68%
- DDDDDQDPHSWNSSFYRLRFELRYRAERSKAAG-NH2 [Example 88] — higher, 66%
- RKFQNSPAEDFQEPCQYSQESK [Example 17] — higher, 60%
- KKRKFQNSPAEDFQEPCQYSQES [Example 18] — higher, 55%
- EEEWQDPHSWNSSFYRLRFELRYRAERSKKG-NH2 [Example 95] — higher, 65%
- CC[C@H](C)[C@H](NC(=O)[C@H](CC(N)=O)NC(=O)[C@H](CC(=O)O)NC(=O)[C@H](CC(=O)O)NC(=O)[C@H](CC(=O)O)NC(=O)[C@H](CCCCN)NC(=O)[C@H](CC(N)=O)NC(=O)[C@@H](NC(=O)[C@@H](NC(=O)[C@H](CC(C)C)NC(=O)[C@H](C)NC(=O)[C@H](CCC(N)=O)NC(=O)CCCCCCCCCCCN)[C@@H](C)O)[C@@H](C)O)C(=O)N[C@@H](CC(C)C)C(=O)N[C@@H](Cc1ccccc1)C(=O)N[C@@H](CCCNC(=N)N)C(=O)N[C@@H](CC(=O)O)C(=O)N[C@@H](CO)C(=O)N[C@@H](C)C(=O)N[C@@H](CCC(=O)O)C(=O)N[C@@H](CCC(=O)O)C(=O)N[C@@H](CCC(=O)O)C(=O)N[C@@H](CCC(=O)O)C(=O)N[C@@H](CCC(=O)O)C(=O)O [Example 27] (H-[12Ado]QALTTNKDDDNILFRDSAEEEEE-OH) — higher, 48%
- DDDDDRKFQNSPAEDFQEPCQYSQESAAG-NH2 [Example 24] — higher, 55%
- NPRWLSVTWQDPHSK [Example 49] — lower, 30%
- DDDDDWNSSFYRLRFELRYRAERSKAAG-NH2 [Example 40] — lower, 37%
